This is an account of results in PubChem BioAssay (NCI).

Test systems include HS 578T breast; DU-145 prostate; SNB-78 CNS; P388 leukemia; SN12K1 renal; RXF-631 renal; LXFL 529 NSCLC; P388/ADR leukemia.
Assay in all cases: NCI tumour cell line growth inhibition, 48 h

Molecules are shown by their SMILES.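 Step 1: Grow cells in 96-well plates. Step 2: Expose to compound for 48 hours at 5 concentrations. Step 3: Interpolate endpoints linearly; if unreached, use highest concentration. GI50 = concentration required for 50% inhibition of growth. TGI: concentration producing complete growth inhibition.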

For the compound `C/C(=N/NC(N)=S)c1ccc[nH]1`, the TGI in the assay on HS 578T breast and in the assay on DU-145 prostate was > 100 µM each time.

For `CC(=O)Nc1ccc(/C=C/c2ccc(NC(=O)Nc3ccc(/C=C/c4ccc(NC(C)=O)cc4S(=O)(=O)O)c(S(=O)(=O)O)c3)cc2S(=O)(=O)O)c(S(=O)(=O)O)c1`, the TGI with SNB-78 CNS, with P388 leukemia and in the assay on SN12K1 renal was > 100 µM in each case.

For the compound `COCc1nc2c(OC)c(-c3nc4nc(N5CCN(C)CC5)ccc4[nH]3)cc(OC)c2n1C`, the TGI in the assay on HS 578T breast and in the assay on DU-145 prostate was > 100 µM in each case.

For the compound `CCOP(=O)(OCC)C(c1ccc(F)cc1)N(C(=O)NC(F)(F)F)c1cccc(C(F)(F)F)c1` (configuration not stated), the TGI in the assay with HS 578T breast and with DU-145 prostate was > 100 µM in each case.

On to `CCC(C)NC1=NCC(C)S1` (configuration not stated), for which the TGI in the assay on HS 578T breast and with DU-145 prostate was > 100 µM each time.

As to `CN=C(SC)N(C)c1nc(=[N+](C)C)ss1`, the TGI in the assay on SNB-78 CNS was > 100 µM; with RXF-631 renal it was 16.4 µM; with LXFL 529 NSCLC it was > 100 µM.

On to `COc1ccccc1CNCCCN1C(=O)c2ccc3c4c(ccc(c24)C1=O)C(=O)N(CCCNCCNCCCN)C3=O`, for which, in the assay on HS 578T breast, the GI50 was 5.51 µM and the TGI stood at 42.9 µM. In the assay on DU-145 prostate, the GI50 was 3.65 µM and the TGI amounted to 12.5 µM.

Consider `CCOC(=O)Cn1c(=O)ccn(COCCO)c1=O`, for which the TGI in the assay on HS 578T breast and in the assay with DU-145 prostate was > 100 µM in each case.

Regarding `COc1cc2oc(-c3ccc(O)cc3)c(OC)c(=O)c2c(O)c1OC`, in the assay with DU-145 prostate, the GI50 was 18.3 µM and the TGI is > 100 µM.

As for `COc1ccc(S(=O)(=O)c2ccccc2[N+](=O)[O-])cc1`, the TGI with LXFL 529 NSCLC was > 100 µM.

Consider `CCOC(=O)c1ccc(N[C@@H]2c3cc4c(cc3C(c3cc(OC)c(O)c(OC)c3)[C@H]3C(=O)OCC32)OCO4)cc1O` (some centres not stated), for which the TGI with SNB-78 CNS was > 100 µM; with P388 leukemia, 0.902 µM; with P388/ADR leukemia it was 0.324 µM; in the assay with SN12K1 renal it was 11.3 µM.

In the case of `COCCCNc1nc(N)c(C#N)c(C#N)c1C#N`, the TGI in the assay with HS 578T breast and with DU-145 prostate was > 10 µM each time.

Regarding `Nc1nc([O-])c2c(n1)[n+](C1OC(CO)C(O)C1O)cn2CCO` (configuration not stated), the TGI in the assay on SNB-78 CNS, in the assay on RXF-631 renal and in the assay on LXFL 529 NSCLC was > 100 µM in each case.

As for `Clc1ccc(C[P+](c2ccccc2)(c2ccccc2)c2ccccc2)c(Cl)c1`, the TGI in the assay on SNB-78 CNS came out at 11 µM; in the assay on LXFL 529 NSCLC it was 12.5 µM.

Regarding `CCOC(=O)CNC(=O)N(CC)C12CC3CC(CC(C3)C1)C2`, the TGI with SNB-78 CNS worked out at 474 µM; in the assay on P388 leukemia it was 260 µM; with P388/ADR leukemia, 421 µM; in the assay with SN12K1 renal, 181 µM.

With `C[Si](C)(C)OC1CC(=O)OC1n1cc(F)c(=O)[nH]c1=O` (configuration not stated), the TGI with RXF-631 renal and with LXFL 529 NSCLC was > 100 µM throughout.

For the compound `CN(C)CC1CCCC(CN(C)C)C1OC(=O)c1ccccc1` (configuration not stated), the TGI in the assay on SNB-78 CNS and in the assay on LXFL 529 NSCLC was > 100 µM each time.
